How the values were obtained:
Assay in all cases: Kinase profiling panel
Format in all cases: biochemical
PHK = system: PHK
Experimental: (§1) Supplementary Table 2. ZT-1a kinase profiling data6.
(§2) ZT-1a was tested at 10 and 1 µM against a panel of 140 recombinant kinases in an enzymatic
(§3) activity-based assay performed by the International Centre for Kinase Profiling in the MRC
(§4) Protein Phosphorylation and Ubiquitylation Unit. Values represent % residual kinase activity

TAO1 = system: TAO1
Experimental: as §1, §2, §3, §4

NEK6 = system: NEK6
Experimental: as §1, §2, §3, §4

TTK = system: TTK
Experimental: as §1, §2, §3, §4

LKB1 = system: LKB1
Experimental: as §1, §2, §3, §4

PRAK = system: PRAK
Experimental: as §1, §2, §3, §4

DAPK1 = system: DAPK1
Experimental: as §1, §2, §3, §4

S6K1 = system: S6K1
Experimental: as §1, §2, §3, §4

PKBb = system: PKBb
Experimental: as §1, §2, §3, §4

MAP4K5 = system: MAP4K5
Experimental: as §1, §2, §3, §4

BRSK2 = system: BRSK2
Experimental: as §1, §2, §3, §4

TTBK1 = system: TTBK1
Experimental: as §1, §2, §3, §4

ROCK 2 = system: ROCK 2
Experimental: as §1, §2, §3, §4

IRR = system: IRR
Experimental: as §1, §2, §3, §4

TESK1 = system: TESK1
Experimental: as §1, §2, §3, §4

IRAK4 = system: IRAK4
Experimental: as §1, §2, §3, §4

PIM2 = system: PIM2
Experimental: as §1, §2, §3, §4

EIF2AK3 = system: EIF2AK3
Experimental: as §1, §2, §3, §4

MST3 = system: MST3
Experimental: as §1, §2, §3, §4

JNK2 = system: JNK2
Experimental: as §1, §2, §3, §4

CK1δ = system: CK1δ
Experimental: as §1, §2, §3, §4

BRK = system: BRK
Experimental: as §1, §2, §3, §4

CDK9-Cyclin T1 = system: CDK9-Cyclin T1
Experimental: as §1, §2, §3, §4

IKKe = system: IKKe
Experimental: as §1, §2, §3, §4

EPH-A4 = system: EPH-A4
Experimental: as §1, §2, §3, §4

p38b MAPK = system: p38b MAPK
Experimental: as §1, §2, §3, §4

PIM1 = system: PIM1
Experimental: as §1, §2, §3, §4

GSK3b = system: GSK3b
Experimental: as §1, §2, §3, §4

Lck = system: Lck
Experimental: as §1, §2, §3, §4

FGF-R1 = system: FGF-R1
Experimental: as §1, §2, §3, §4

PKD1 = system: PKD1
Experimental: as §1, §2, §3, §4

MKK1 = system: MKK1
Experimental: as §1, §2, §3, §4

WNK1 = system: WNK1
Experimental: as §1, §2, §3, §4

MKK6 = system: MKK6
Experimental: as §1, §2, §3, §4

IRAK1 = system: IRAK1
Experimental: as §1, §2, §3, §4

MARK4 = system: MARK4
Experimental: as §1, §2, §3, §4

MNK1 = system: MNK1
Experimental: as §1, §2, §3, §4

EPH-B2 = system: EPH-B2
Experimental: as §1, §2, §3, §4

EPH-B1 = system: EPH-B1
Experimental: as §1, §2, §3, §4

ERK1 = system: ERK1
Experimental: as §1, §2, §3, §4

JNK3 = system: JNK3
Experimental: as §1, §2, §3, §4

PKCz = system: PKCz
Experimental: as §1, §2, §3, §4

TIE2 = system: TIE2
Experimental: as §1, §2, §3, §4

MARK1 = system: MARK1
Experimental: as §1, §2, §3, §4

Cc1cc(C(C#N)c2ccc(Cl)cc2)c(Cl)cc1NC(=O)c1cc(Cl)ccc1O (stereo not shown) [ZT-1a, 5-chloro-N-(5-chloro-4-((4-chlorophenyl)(cyano)methyl)-2-methylphenyl)-2-hydroxybenzamide]
% residual kinase activity (PHK; 1 µM): 97±3%
% residual kinase activity (PHK; 10 µM): 107±2%
% residual kinase activity (TAO1; 1 µM): 66±2%
% residual kinase activity (TAO1; 10 µM): 104±2%
% residual kinase activity (NEK6; 1 µM): 107±6%
% residual kinase activity (NEK6; 10 µM): 108±1%
% residual kinase activity (TTK; 1 µM): 104±2%
% residual kinase activity (TTK; 10 µM): 91±5%
% residual kinase activity (LKB1; 1 µM): 107±8%
% residual kinase activity (LKB1; 10 µM): 115±11%
% residual kinase activity (PRAK; 1 µM): 78±13%
% residual kinase activity (PRAK; 10 µM): 41±7%
% residual kinase activity (DAPK1; 1 µM): 131±8%
% residual kinase activity (DAPK1; 10 µM): 159±11%
% residual kinase activity (S6K1; 1 µM): 119±10%
% residual kinase activity (S6K1; 10 µM): 81±2%
% residual kinase activity (PKBb; 1 µM): 76±14%
% residual kinase activity (PKBb; 10 µM): 51±13%
% residual kinase activity (MAP4K5; 1 µM): 95±28%
% residual kinase activity (MAP4K5; 10 µM): 76±9%
% residual kinase activity (BRSK2; 1 µM): 115±14%
% residual kinase activity (BRSK2; 10 µM): 104±0%
% residual kinase activity (TTBK1; 1 µM): 119±5%
% residual kinase activity (TTBK1; 10 µM): 102±2%
% residual kinase activity (ROCK 2; 1 µM): 109±6%
% residual kinase activity (ROCK 2; 10 µM): 101±10%
% residual kinase activity (IRR; 1 µM): 105±5%
% residual kinase activity (IRR; 10 µM): 95±4%
% residual kinase activity (TESK1; 1 µM): 109±3%
% residual kinase activity (TESK1; 10 µM): 77±10%
% residual kinase activity (IRAK4; 1 µM): 127±0%
% residual kinase activity (IRAK4; 10 µM): 127±11%
% residual kinase activity (PIM2; 1 µM): 93±5%
% residual kinase activity (PIM2; 10 µM): 93±3%
% residual kinase activity (EIF2AK3; 1 µM): 114±2%
% residual kinase activity (EIF2AK3; 10 µM): 100±3%
% residual kinase activity (MST3; 1 µM): 109±8%
% residual kinase activity (MST3; 10 µM): 113±15%
% residual kinase activity (JNK2; 1 µM): 102±2%
% residual kinase activity (JNK2; 10 µM): 147±51%
% residual kinase activity (CK1δ; 1 µM): 116±5%
% residual kinase activity (CK1δ; 10 µM): 114±9%
% residual kinase activity (BRK; 1 µM): 116±12%
% residual kinase activity (BRK; 10 µM): 103±2%
% residual kinase activity (CDK9-Cyclin T1; 1 µM): 104±0%
% residual kinase activity (CDK9-Cyclin T1; 10 µM): 108±1%
% residual kinase activity (IKKe; 1 µM): 87±13%
% residual kinase activity (IKKe; 10 µM): 59±5%
% residual kinase activity (EPH-A4; 1 µM): 59±33%
% residual kinase activity (EPH-A4; 10 µM): 90±11%
% residual kinase activity (p38b MAPK; 1 µM): 124±1%
% residual kinase activity (p38b MAPK; 10 µM): 124±0%
% residual kinase activity (PIM1; 1 µM): 108±19%
% residual kinase activity (PIM1; 10 µM): 101±8%
% residual kinase activity (GSK3b; 1 µM): 39±4%
% residual kinase activity (GSK3b; 10 µM): 38±12%
% residual kinase activity (Lck; 1 µM): 112±13%
% residual kinase activity (Lck; 10 µM): 127±14%
% residual kinase activity (FGF-R1; 1 µM): 93±6%
% residual kinase activity (FGF-R1; 10 µM): 101±15%
% residual kinase activity (PKD1; 1 µM): 89±0%
% residual kinase activity (PKD1; 10 µM): 79±10%
% residual kinase activity (MKK1; 1 µM): 106±2%
% residual kinase activity (MKK1; 10 µM): 114±17%
% residual kinase activity (WNK1; 1 µM): 125±17%
% residual kinase activity (WNK1; 10 µM): 122±35%
% residual kinase activity (MKK6; 1 µM): 102±12%
% residual kinase activity (MKK6; 10 µM): 82±16%
% residual kinase activity (IRAK1; 1 µM): 128±2%
% residual kinase activity (IRAK1; 10 µM): 95±7%
% residual kinase activity (MARK4; 1 µM): 68±8%
% residual kinase activity (MARK4; 10 µM): 59±9%
% residual kinase activity (MNK1; 1 µM): 78±19%
% residual kinase activity (MNK1; 10 µM): 87±2%
% residual kinase activity (EPH-B2; 1 µM): 77±2%
% residual kinase activity (EPH-B2; 10 µM): 81±8%
% residual kinase activity (EPH-B1; 1 µM): 77±15%
% residual kinase activity (EPH-B1; 10 µM): 80±19%
% residual kinase activity (ERK1; 1 µM): 107±16%
% residual kinase activity (ERK1; 10 µM): 109±18%
% residual kinase activity (JNK3; 1 µM): 63±15%
% residual kinase activity (JNK3; 10 µM): 60±10%
% residual kinase activity (PKCz; 1 µM): 80±11%
% residual kinase activity (PKCz; 10 µM): 122±28%
% residual kinase activity (TIE2; 1 µM): 139±74%
% residual kinase activity (TIE2; 10 µM): 73±11%
% residual kinase activity (MARK1; 1 µM): 104±16%
% residual kinase activity (MARK1; 10 µM): 91±5%
